From US20230135729A1, “COMPOUND WITH ANTI-SPORE ACTIVITY AND PHARMACEUTICAL COMPOSITION THEREOF” (priority 2020, published 2023)
Converted amounts (≈) assume the structure as drawn. Where two headings read alike, the source gives them in different places.

How the values were obtained:
Format in all cases: cell-based
Conditions in all cases: read-out: MIC (minimum concentration that completely inhibits spore germination)
[1] = system: spores of ATCC 630 strain; assay: Inhibition of germination of C. difficile spores (MIC), strain ATCC 630
Summary of the method: (§1)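 Spores heat-activated for 30 min at 65° C and washed, then preincubated with compound (10 mM DMSO stock) in BHIS at 37° C. Germination was triggered with sodium taurocholate, and OD580 was read each minute for 60 min. Inhibition = 100% − germination rate, from final vs initial OD relative to germinant-only controls.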

[2] = system: spores of ATCC 43255 strain; assay: Inhibition of germination of C. difficile spores (MIC), strain ATCC 43255
Summary of the method: as §1

[3] = system: spores of ATCC BBA1870 strain; assay: Inhibition of germination of C. difficile spores (MIC), strain ATCC BBA1870
Summary of the method: as §1

[4] = Clostridioides difficile, ATCC630, 1 h, strain 630, sodium taurocholate as germinant, BHIS medium, 37° C., OD580 for 60 min
[5] = Clostridioides difficile, ATCC43255, 1 h, strain 43255, sodium taurocholate as germinant, BHIS medium, 37° C., OD580 for 60 min
[6] = Clostridioides difficile, ATCCBBA1870STRAIN, 1 h, strain 1870, sodium taurocholate as germinant, BHIS medium, 37° C., OD580 for 60 min

Row | Structure (SMILES) | MIC [1, 4] [µM] | MIC [2, 5] [µM] | MIC [3, 6] [µM] | further results
1 | CC[C@H](NC(=O)C[C@@H](C)[C@H]1CC[C@H]2[C@@H]3[C@H](OS(=O)(=O)O)C[C@@H]4CC(=O)CC[C@]4(C)[C@H]3CC[C@]12C)c1ccc(Br)s1 [Compound I-108] | > 256 | > 256 | > 256 | 
2 | CC(NC(=O)C[C@@H](C)[C@H]1CC[C@H]2[C@@H]3[C@H](O)C[C@@H]4C[C@H](O)CC[C@]4(C)[C@H]3CC[C@]12C)c1cccs1 (stereo partly drawn) [Compound I-8] | 4 (≈ 1.95 µg/mL) | 2 (≈ 0.976 µg/mL) | 4 (≈ 1.95 µg/mL) | 
3 | C[C@H](CC(=O)NCc1nccs1)[C@H]1CC[C@H]2[C@@H]3C(=O)C[C@@H]4C[C@H](O)CC[C@]4(C)[C@H]3CC[C@]12C [Compound I-15] | 32 (≈ 15.1 µg/mL) | 64 (≈ 30.3 µg/mL) | 32 (≈ 15.1 µg/mL) | 
4 | CC[C@@H](NC(=O)C[C@@H](C)[C@H]1CC[C@H]2[C@@H]3C(=O)C[C@@H]4C[C@H](OC)CC[C@]4(C)[C@H]3CC[C@]12C)c1ccc(Cl)s1 [Compound I-167] | 128 (≈ 70.2 µg/mL) | 128 (≈ 70.2 µg/mL) | 256 (≈ 140 µg/mL) | 
5 | CCC(NC(=O)C[C@@H](C)[C@H]1CC[C@H]2[C@@H]3C(=O)C[C@@H]4CC(=O)CC[C@]4(C)[C@H]3CC[C@]12C)c1ccc(Cl)s1 (stereo partly drawn) [Compound I-68] | 1 (≈ 0.532 µg/mL) | 2 (≈ 1.06 µg/mL) | 1 (≈ 0.532 µg/mL) | 
6 | C[C@H](CC(=O)NC(c1cccs1)c1cccs1)[C@H]1CC[C@H]2[C@@H]3C(=O)C[C@@H]4CC(=O)CC[C@]4(C)[C@H]3CC[C@]12C [Compound I-56] | 16 (≈ 8.83 µg/mL) | 16 (≈ 8.83 µg/mL) | 16 (≈ 8.83 µg/mL) | 
7 | CC(C)[C@@H](NC(=O)C[C@@H](C)[C@H]1CC[C@H]2[C@@H]3[C@H](O)C[C@@H]4CC(=O)CC[C@]4(C)[C@H]3CC[C@]12C)c1ccc(Cl)s1 [Compound I-97] | 0.125 (≈ 0.0685 µg/mL) | 0.125 (≈ 0.0685 µg/mL) | 0.125 (≈ 0.0685 µg/mL) | 
8 | C[C@H](CC(=O)NC(c1ccccc1)c1cccs1)[C@H]1CC[C@H]2[C@@H]3C(=O)C[C@@H]4CC(=O)CC[C@]4(C)[C@H]3CC[C@]12C (stereo partly drawn) [Compound I-55] | 32 (≈ 17.5 µg/mL) | 32 (≈ 17.5 µg/mL) | 64 (≈ 34.9 µg/mL) | 
9 | CC(C)[C@@H](NC(=O)C[C@@H](C)[C@H]1CC[C@H]2[C@@H]3[C@@H](O)C[C@@H]4CC(=O)CC[C@]4(C)[C@H]3CC[C@]12C)c1ccc(Cl)s1 [Compound I-164] | 32 (≈ 17.5 µg/mL) | 32 (≈ 17.5 µg/mL) | 32 (≈ 17.5 µg/mL) | 
10 | CC(C)[C@H](NC(=O)C[C@@H](C)[C@H]1CC[C@H]2[C@@H]3[C@H](O)C[C@@H]4CC(=O)CC[C@]4(C)[C@H]3CC[C@]12C)c1ccc(Cl)s1 [Compound I-96] | 4 (≈ 2.19 µg/mL) | 4 (≈ 2.19 µg/mL) | 4 (≈ 2.19 µg/mL) | 
11 | CC(=O)O[C@@H]1CC2=CC(=O)CC[C@]2(C)[C@H]2CC[C@]3(C)[C@@H]([C@H](C)CC(=O)N[C@@H](c4ccc(Br)s4)C(C)C)CC[C@H]3[C@H]12 [I-156 -1] | 0.5 (≈ 0.316 µg/mL) | 0.5 (≈ 0.316 µg/mL) | 0.5 (≈ 0.316 µg/mL) | 
12 | CC(C)[C@@H](NC(=O)C[C@@H](C)[C@H]1CC[C@H]2[C@@H]3[C@H](O)C[C@@H]4CC(=O)CC[C@]4(C)[C@H]3CC[C@]12C)c1ccc(Br)s1 [Compound I-100] | 0.25 (≈ 0.148 µg/mL) | 0.25 (≈ 0.148 µg/mL) | 0.25 (≈ 0.148 µg/mL) | 
13 | CC[C@H](NC(=O)C[C@@H](C)[C@H]1CC[C@H]2[C@@H]3[C@H](O)C[C@@H]4CC(=O)CC[C@]4(C)[C@H]3CC[C@]12C)c1ccc(Br)s1 [Compound I-90] | > 256 | > 256 | > 256 | 
14 | Cc1ccc(C(C)NC(=O)C[C@@H](C)[C@H]2CC[C@H]3[C@@H]4C(=O)C[C@@H]5CC(=O)CC[C@]5(C)[C@H]4CC[C@]23C)s1 (stereo partly drawn) [Compound I-30] | 1 (≈ 0.498 µg/mL) | 2 (≈ 0.995 µg/mL) | 2 (≈ 0.995 µg/mL) | 
15 | CC(C)C(NC(=O)C[C@@H](C)[C@H]1CC[C@H]2[C@@H]3C(=O)C[C@@H]4CC(=O)CC[C@]4(C)[C@H]3CC[C@]12C)c1cccs1 (stereo partly drawn) [Compound I-40] | 2 (≈ 1.02 µg/mL) | 2 (≈ 1.02 µg/mL) | 4 (≈ 2.05 µg/mL) | 
16 | CO[C@@H]1CC[C@@]2(C)[C@@H](C1)C[C@@H](O)[C@@H]1[C@@H]2CC[C@]2(C)[C@@H]([C@H](C)CC(=O)N[C@@H](c3ccc(Cl)s3)C(C)C)CC[C@@H]12 [Compound I-170] | 128 (≈ 72.2 µg/mL) | 128 (≈ 72.2 µg/mL) | 128 (≈ 72.2 µg/mL) | 

Row | Structure (SMILES) | MIC [1, 4] [µM] | MIC [2, 5] [µM] | MIC [3, 6] [µM] | further results
17 | CC[C@@H](NC(=O)C[C@@H](C)[C@H]1CC[C@H]2[C@@H]3[C@H](OC(C)=O)CC4=CC(=O)CC[C@]4(C)[C@H]3CC[C@]12C)c1ccc(Br)s1 [I-155 -1] | 0.25 (≈ 0.155 µg/mL) | 0.25 (≈ 0.155 µg/mL) | 0.25 (≈ 0.155 µg/mL) | 
18 | CC(C)[C@@H](NC(=O)C[C@@H](C)[C@H]1CC[C@H]2[C@@H]3[C@H](O)CC4=CC(=O)C=C[C@]4(C)[C@H]3CC[C@]12C)c1ccc(Br)s1 [Compound I-160-2] | 0.5 (≈ 0.294 µg/mL) | 0.5 (≈ 0.294 µg/mL) | 0.5 (≈ 0.294 µg/mL) | 
19 | CC[C@@H](NC(=O)C[C@@H](C)[C@H]1CC[C@H]2[C@@H]3C(=O)C[C@@H]4CC(=O)CC[C@]4(C)[C@H]3CC[C@]12C)c1ccc(C=O)s1 [Compound I-199] | 16 (≈ 8.41 µg/mL) | 16 (≈ 8.41 µg/mL) | 16 (≈ 8.41 µg/mL) | 
20 | CC(C)[C@@H](NC(=O)C[C@@H](C)[C@H]1CC[C@H]2[C@@H]3[C@H](O)CC4=CC(=O)CC[C@]4(C)[C@H]3CC[C@]12C)c1ccc(Br)s1 [Compound I-156-2] | 0.25 (≈ 0.148 µg/mL) | 0.5 (≈ 0.295 µg/mL) | 0.25 (≈ 0.148 µg/mL) | 
21 | CC(C)[C@@H](NC(=O)C[C@@H](C)[C@H]1CC[C@H]2[C@@H]3[C@H](O)[C@H](O)[C@@H]4C[C@H](O)CC[C@]4(C)[C@H]3CC[C@]12C)c1ccc(Cl)s1 [Compound I-120] | 16 (≈ 9.06 µg/mL) | 16 (≈ 9.06 µg/mL) | 16 (≈ 9.06 µg/mL) | 
22 | CC(C)[C@@H](NC(=O)C[C@@H](C)[C@H]1CC[C@H]2[C@@H]3[C@H](N)C[C@@H]4CC(=O)CC[C@]4(C)[C@H]3CC[C@]12C)c1ccc(Cl)s1 [Compound I-174] | 32 (≈ 17.5 µg/mL) | 32 (≈ 17.5 µg/mL) | 32 (≈ 17.5 µg/mL) | 
23 | CCCCCCCCCCCCCC(NC(=O)C[C@@H](C)[C@H]1CC[C@H]2[C@@H]3C(=O)C[C@@H]4CC(=O)CC[C@]4(C)[C@H]3CC[C@]12C)c1cccs1 (stereo partly drawn) [Compound I-47] | > 256 | > 256 | > 256 | 
24 | CC(=O)O[C@@H]1C[C@@H]2CC(=O)CC[C@]2(C)[C@H]2CC[C@]3(C)[C@@H]([C@H](C)CC(=O)N[C@@H](c4ccc(Cl)s4)C(C)C)CC[C@H]3[C@H]12 [Compound I-177] | 0.5 (≈ 0.295 µg/mL) | 1 (≈ 0.59 µg/mL) | 0.5 (≈ 0.295 µg/mL) | 
25 | C[C@H](CCC(=O)Nc1cccc(S(=O)(=O)O)c1)[C@H]1CC[C@H]2[C@@H]3[C@H](O)C[C@@H]4C[C@H](O)CC[C@]4(C)[C@H]3C[C@H](O)[C@]12C [CamSA, reference compound] |  |  |  | MIC ([1]; strain 630, sodium taurocholate as germinant, BHIS medium, 37° C., OD580 for 60 min): >256 µM; MIC ([2]; strain 43255, sodium taurocholate as germinant, BHIS medium, 37° C., OD580 for 60 min): >256 µM; MIC ([3]; strain 1870, sodium taurocholate as germinant, BHIS medium, 37° C., OD580 for 60 min): >256 µM
26 | C[C@H](CC(=O)NC(Cc1ccccc1)c1ccccc1)[C@H]1CC[C@H]2[C@@H]3C(=O)C[C@@H]4CC(=O)CC[C@]4(C)[C@H]3CC[C@]12C (stereo partly drawn) [Compound I-62] |  |  |  | MIC ([1]; Clostridioides difficile, ATCC630, 1 h): 128 µM (≈ 70.9 µg/mL); MIC ([2]; Clostridioides difficile, ATCC43255, 1 h): 128 µM (≈ 70.9 µg/mL); MIC ([3]; Clostridioides difficile, ATCCBBA1870STRAIN, 1 h): 256 µM (≈ 142 µg/mL)
27 | CC(C)[C@@H](NC(=O)C[C@@H](C)[C@H]1CC[C@H]2[C@@H]3C(=O)C[C@@H]4CC(=O)CC[C@]4(C)[C@H]3CC[C@]12C)c1ccc(C(=O)CCCCCCC(=O)O)s1 [Compound I-206] | 128 (≈ 85.5 µg/mL) | 128 (≈ 85.5 µg/mL) | 256 (≈ 171 µg/mL) | 
28 | CC[C@@H](NC(=O)C[C@@H](C)[C@H]1CC[C@H]2[C@@H]3[C@H](O)CC4=CC(=O)C=C[C@]4(C)[C@H]3CC[C@]12C)c1ccc(Cl)s1 [Compound I-161-2] | 0.25 (≈ 0.133 µg/mL) | 0.5 (≈ 0.265 µg/mL) | 0.25 (≈ 0.133 µg/mL) | 
29 | CC(NC(=O)C[C@@H](C)[C@H]1CC[C@H]2[C@@H]3C(=O)C[C@@H]4CC(=O)CC[C@]4(C)[C@H]3CC[C@]12C)c1ccc(Br)s1 (stereo partly drawn) [Compound I-33] | 0.5 (≈ 0.281 µg/mL) | 1 (≈ 0.563 µg/mL) | 0.5 (≈ 0.281 µg/mL) | 
30 | C[C@H](CC(=O)NC(c1cccs1)C1CCCCC1)[C@H]1CC[C@H]2[C@@H]3C(=O)C[C@@H]4CC(=O)CC[C@]4(C)[C@H]3CC[C@]12C (stereo partly drawn) [Compound I-54] | 256 (≈ 141 µg/mL) | > 256 | > 256 | 
31 | CC(C)[C@@H](NC(=O)C[C@@H](C)[C@H]1CC[C@H]2[C@@H]3[C@H](N)C[C@@H]4C[C@H](O)CC[C@]4(C)[C@H]3CC[C@]12C)c1ccc(Cl)s1 [Compound I-173] | 16 (≈ 8.79 µg/mL) | 16 (≈ 8.79 µg/mL) | 32 (≈ 17.6 µg/mL) | 
